Series [1] concerns CIMRSA 1. In words: Determination of bactericidal concentration. The class given is cell-based, Clinical isolate of methicillin-resistant S. aureus. The note with it: CIMRSA 1 and 2 (both strains, text summary).
Series [2] is described as follows: Cytotoxicity testing, MTT assay. The class given is cell-based. The note with it: human.
The subject of series [3] is Mycobacterium tuberculosis. The note with it: ref Carballeira et al., 2006; cited from earlier work.
A further series relates to S. aureus (ATCC 29213). In words: Microdilution susceptibility testing. The note with it: for IC50: ATCC29213, read-out: IC50 ± SEM. A general note: Dilution methods test growth across graded concentrations, often in twofold steps.
For series [4], the system named is S. saprophyticus (ATCC 15305). In words: Microdilution susceptibility testing. Particulars: for IC50: ATCC15305, read-out: IC50 ± SEM.
A further series relates to B. cereus (ATCC 10876). Put plainly: Microdilution susceptibility testing. Particulars: for IC50: ATCC10876, read-out: IC50 ± SEM.
The next series concerns E. coli (ATCC 25922). Put plainly: Microdilution susceptibility testing.
The subject of series [5] is K. pneumoniae (ATCC 13883). In words: Microdilution susceptibility testing. Particulars: for IC50: ATCC13883, read-out: IC50 ± SEM.
Series [6] deals with P. aeruginosa (ATCC 27853). Put plainly: Microdilution susceptibility testing. The note with it: for IC50: ATCC27853, read-out: IC50 ± SEM.
A further series has as its system MRSA ATCC 43300. In words: Microdilution susceptibility testing. Particulars: for IC50: read-out: IC50 ± SEM.
Series [7] has as its system CIMRSA 1. Put plainly: Microdilution susceptibility testing. The note with it: for IC50: read-out: IC50 ± SEM.
For another series, the system named is CIMRSA 2. In words: Microdilution susceptibility testing. Particulars: for IC50: read-out: IC50 ± SEM.
Series [8] deals with Peripheral blood mononuclear cells (PBMC). Put plainly: Cytotoxicity testing, MTT assay. The class given is cell-based. (In general: Formazan colour is commonly taken as a measure of viable cells.)
Series [9] has as its system Neisseria gonorrhoeae, Neisseria meningitidis, and Bacteroides fragilis. Particulars: N. gonorrhoeae, B. fragilis, ref Konthikamee et al., 1982; cited from earlier work.
The subject of series [10] is Leishmania donovani amastigotes. The note with it: L. donovani amastigotes; ref Tasdemir et al., 2010; cited from earlier work.
The target of series [11] is L. donovani DNA topoisomerase IB enzyme (LdTopIB). Particulars: ref Carballeira et al., 2012; cited from earlier work.
Series [12] concerns Gram-positive and Gram-negative bacteria. Put plainly: Antibacterial activity against the bacteria of Table 1.
[13] abbreviates: peripheral blood mononuclear cells (PBMC).
The mark [14] stands for this setting: Staphylococcus aureus, ATCC29213.
Where [15] appears, read: Staphylococcus saprophyticus, ATCC15305, S. saprophyticus ATCC 15305, 37°C, 18-24 h.
Setting [16] is: Klebsiella pneumoniae, ATCC13883.
[17] abbreviates: Pseudomonas aeruginosa, ATCC27853.
The mark [18] stands for this setting: Staphylococcus aureus, ATCC43300|MRSA.
Setting [19] is: S. aureus ATCC 29213, 37°C, 18-24 h.
[20] abbreviates: S. saprophyticus ATCC 15305, 37°C, 18-24 h.
Setting [21] is: B. cereus ATCC 10876, 37°C, 18-24 h.
Setting [22] is: K. pneumoniae ATCC 13883, 37°C, 18-24 h.

Molecules are shown by their SMILES. ≈ marks a conversion by molar mass, not a printed value.

For orientation: IC50 means the midpoint of a concentration-inhibition curve.

`CCCCCCCCCC#CCCC#CC(=O)O` [2,6-HDA, 2,6-hexadecadiynoic acid]: in the series on CIMRSA 1 [1], the bactericidal concentration was 125 to 500 µg/mL. Moreover, the midpoint of inhibition in series [2] (setting [13]), the IC50 at 3 days, lay at 63.4 ± 0.3 µg/mL (≈ 255 µM). Moreover, the “minimum inhibitory concentrations (MICs)” value in series [3] is 141 to 145 µM. In addition, the MIC in the series on S. aureus (ATCC 29213) (setting [14]) was 31.3 µg/mL (≈ 126 µM); in [4] (setting [15]), 62.5 µg/mL (≈ 252 µM); in the series with B. cereus (ATCC 10876) (Bacillus cereus, ATCC10876), 62.5 µg/mL (≈ 252 µM); against E. coli (ATCC 25922) (Escherichia coli, ATCC25922), > 1000 µg/mL; in series [5] (setting [16]), 62.5 µg/mL (≈ 252 µM); in [6] (setting [17]) it was 250 µg/mL (≈ 1010 µM). Besides, the MIC in the series on MRSA ATCC 43300 (setting [18]), against CIMRSA 1 [7] (Staphylococcus aureus) and in the series with CIMRSA 2 (Staphylococcus aureus) was 62.5 µg/mL (≈ 252 µM) each time. The IC50 is 14.1 µg/mL (≈ 56.8 µM) with S. aureus (ATCC 29213) (Staphylococcus aureus); 21.5 µg/mL (≈ 86.6 µM) in series [4] (Staphylococcus saprophyticus); 46.1 µg/mL (≈ 186 µM) in the series on B. cereus (ATCC 10876) (Bacillus cereus); 31.2 µg/mL (≈ 126 µM) in series [5] (Klebsiella pneumoniae); 132 µg/mL (≈ 533 µM) in series [6] (Pseudomonas aeruginosa); 22.3 µg/mL (≈ 89.8 µM) in the series with MRSA ATCC 43300 (setting [18]). Further, the values for the IC50 with CIMRSA 1 [7] (Staphylococcus aureus) and in the series with CIMRSA 2 (Staphylococcus aureus) were 39.5 µg/mL (≈ 159 µM) and 22.4 µg/mL (≈ 90.2 µM), respectively.
Consider `CCCCCCC#CCCCCCC#CC(=O)O` [2,9-HDA], for which, in the series on CIMRSA 1 [1], the bactericidal concentration lay within 125 to 500 µg/mL. Moreover, the “PBMC cytotoxicity, IC50 ± SEM” value in series [8] was 93.3 ± 0.4 µg/mL. The “IC50 ± SEM” value in the series with S. aureus (ATCC 29213) (setting [19]) worked out at 94.0 ± 0.9 µg/mL (≈ 378 µM); in [4] (setting [20]), 61.5 ± 1.2 µg/mL (≈ 248 µM); in the series with B. cereus (ATCC 10876) (setting [21]), 34.2 ± 0.3 µg/mL (≈ 138 µM); in [5] (setting [22]), 135.4 ± 0.7 µg/mL (≈ 545 µM); with MRSA ATCC 43300 (MRSA ATCC 43300), 203.5 ± 2.6 µg/mL (≈ 819 µM); in the series on CIMRSA 1 [7] (CIMRSA 1) it was 102.1 ± 2.4 µg/mL (≈ 411 µM). Further, in the series with CIMRSA 2 (CIMRSA 2), the “IC50 ± SEM” value stood at 76.0 ± 2.4 µg/mL (≈ 306 µM). In addition, the MIC against S. aureus (ATCC 29213) (setting [19]) was 250 µg/mL (≈ 1010 µM); in [4] (setting [20]), 125 µg/mL (≈ 503 µM); in the series on B. cereus (ATCC 10876) (setting [21]), 62.5 µg/mL (≈ 252 µM); in the series with E. coli (ATCC 25922) (E. coli ATCC 25922, 37°C, 18-24 h) it was >1,000 μg/mL; in series [5] (setting [22]), 250 µg/mL (≈ 1010 µM); in [6] (P. aeruginosa ATCC 27853, 37°C, 18-24 h), >1,000 μg/mL. The values for the MIC against MRSA ATCC 43300 (MRSA ATCC 43300), in the series on CIMRSA 1 [7] (CIMRSA 1) and in the series on CIMRSA 2 (CIMRSA 2) were 500 µg/mL (≈ 2010 µM), 250 µg/mL (≈ 1010 µM) and 250 µg/mL (≈ 1010 µM), respectively.
`O=C(O)c1cn(C2CC2)c2cc(N3CCNCC3)c(F)cc2c1=O` [Ciprofloxacin, reference compound]: inhibition in [2] was half-maximal at 66.4 ± 0.6 µg/mL (≈ 200 µM) (IC50 at 3 days). The MIC in the series with S. aureus (ATCC 29213) (setting [14]) was 0.25 µg/mL (≈ 0.754 µM); in [4] (setting [15]), < 0.002 µg/mL; against B. cereus (ATCC 10876) (Bacillus cereus, ATCC10876) it was 0.05 µg/mL (≈ 0.151 µM); in the series with E. coli (ATCC 25922) (Escherichia coli, ATCC25922), < 0.008 µg/mL; in series [5] (setting [16]), 0.24 µg/mL (≈ 0.724 µM); in [6] (setting [17]), 0.24 µg/mL (≈ 0.724 µM). For the same molecule, the MIC against MRSA ATCC 43300 (setting [18]) came out at 0.5 µg/mL (≈ 1.51 µM). Further, the IC50 in the series on S. aureus (ATCC 29213) (Staphylococcus aureus) came to 0.14 µg/mL (≈ 0.423 µM); in the series with B. cereus (ATCC 10876) (Bacillus cereus), 0.03 µg/mL (≈ 0.0905 µM); in [5] (Klebsiella pneumoniae), 0.13 µg/mL (≈ 0.392 µM); in series [6] (Pseudomonas aeruginosa) it was 0.11 µg/mL (≈ 0.332 µM); in the series on MRSA ATCC 43300 (setting [18]) it was 0.2 µg/mL (≈ 0.604 µM).
With `CCCCCCCCCCCCCC#CC(=O)O` [Compound 2-HDA, 2-hexadecynoic acid], in the series on CIMRSA 1 [1], the bactericidal concentration turned out to be 7.8 µg/mL. The molecule also showed an IC50 at 3 days in series [2] (setting [13]) of 57.2 ± 0.1 µg/mL (≈ 227 µM). Further, the active concentrations in [9] is 5.0 to 21.4 µM. In addition, the “minimum inhibitory concentrations (MICs)” value in series [3] is 141 to 145 µM. Moreover, the IC50 is 17.8 µM in series [10]; 28.7 µM in series [11]; 6.2 µg/mL (≈ 24.6 µM) in the series with S. aureus (ATCC 29213) (Staphylococcus aureus); 8.8 µg/mL (≈ 34.9 µM) in series [4] (Staphylococcus saprophyticus); 17.2 µg/mL (≈ 68.1 µM) in the series with B. cereus (ATCC 10876) (Bacillus cereus); 6.1 µg/mL (≈ 24.2 µM) in series [5] (Klebsiella pneumoniae). The IC50 came to 87.8 µg/mL (≈ 348 µM) in series [6] (Pseudomonas aeruginosa), 9.4 µg/mL (≈ 37.2 µM) in the series with MRSA ATCC 43300 (setting [18]), 3.3 µg/mL (≈ 13.1 µM) in the series on CIMRSA 1 [7] (Staphylococcus aureus) and 3.4 µg/mL (≈ 13.5 µM) in the series on CIMRSA 2 (Staphylococcus aureus). In addition, the MIC is 15.6 µg/mL (≈ 61.8 µM) in the series on S. aureus (ATCC 29213) (setting [14]); 15.6 µg/mL (≈ 61.8 µM) in [4] (setting [20]); 15.5 µg/mL (≈ 61.4 µM) in series [4] (setting [15]); 31.3 µg/mL (≈ 124 µM) against B. cereus (ATCC 10876) (Bacillus cereus, ATCC10876); > 1000 µg/mL against E. coli (ATCC 25922) (Escherichia coli, ATCC25922); 7.8 µg/mL (≈ 30.9 µM) in series [5] (setting [16]). Also, the MIC in series [6] (setting [17]) is 125 µg/mL (≈ 495 µM); against MRSA ATCC 43300 (setting [18]) it was 15.6 µg/mL (≈ 61.8 µM); against CIMRSA 1 [7] (Staphylococcus aureus), 3.9 µg/mL (≈ 15.5 µM); in the series with CIMRSA 1 [7] (Staphylococcus aureus, MRSA), 3.9 µg/mL (≈ 15.5 µM); in the series on CIMRSA 2 (Staphylococcus aureus), 3.9 µg/mL (≈ 15.5 µM); in series [12] (read-out: MICs), 7.8 to 125 µg/mL (≈ 30.9 to 495 µM).
For the molecule `CCCCCCCCCCCCCC#CCO` [Compound 2-HDOH, 2-Hexadecyn-1-ol], the MIC was > 1000 µg/mL in the series with S. aureus (ATCC 29213) (setting [14]); > 1000 µg/mL in series [4] (setting [15]); > 1000 µg/mL in the series on B. cereus (ATCC 10876) (Bacillus cereus, ATCC10876); > 1000 µg/mL against E. coli (ATCC 25922) (Escherichia coli, ATCC25922); > 1000 µg/mL in series [5] (setting [16]); > 1000 µg/mL in series [6] (setting [17]). Besides, the antibacterial activity entry in series [12] (all bacteria presented in Table 1, result in words) is on record as “not active”.

Source of the values: PMC4048129 (Chemistry and physics of lipids, 2013).
